Data published in patent publication US8003331B2, “Method for identifying target protein of drug and method for screening therapeutic agent for diabetes using the target protein” (Astellas Pharma Inc., priority 2005, dated 2011).

Legend:
TARDBP = target: T1, TARDBP (Homo sapiens, UniProt Q13148); experiment: pull-down with 8 GST fusion chaperone proteins from THP-1 cell extract, negative staining and mass spectrum identification; format: binding; conditions: 100 μM thalidomide added or not added
T1 construct: endogenous in cells; host or cells: THP-1
T1 sequence (Q13148 whole entry, the tested form may be a part): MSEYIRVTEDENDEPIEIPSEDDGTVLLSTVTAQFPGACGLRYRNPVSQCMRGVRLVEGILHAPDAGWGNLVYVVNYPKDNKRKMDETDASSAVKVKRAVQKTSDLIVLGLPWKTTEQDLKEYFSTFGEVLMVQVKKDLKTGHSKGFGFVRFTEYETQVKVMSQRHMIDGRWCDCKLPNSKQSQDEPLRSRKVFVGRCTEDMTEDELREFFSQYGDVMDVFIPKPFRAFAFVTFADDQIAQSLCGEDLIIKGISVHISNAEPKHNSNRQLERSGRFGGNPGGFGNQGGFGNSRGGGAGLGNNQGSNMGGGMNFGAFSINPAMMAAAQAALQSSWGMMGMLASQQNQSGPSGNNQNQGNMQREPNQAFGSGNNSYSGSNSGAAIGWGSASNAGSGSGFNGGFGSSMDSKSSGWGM
Protocol: Thalidomide has significant drug effects for sleep inducing agents, multiple myeloma, HIV, Hansen's disease and the like, but direct target protein of thalidomide has so far been unclear. Accordingly, an attempt was made to screen a target protein of thalidomide using the method shown in the aforementioned “Example 2(2). A human monocytic cell line THP-1 (ATCC) was cultured and suspended in 60 ml of a minimum essential medium (RPMI 1640, Invitrogen) containing 10% fetal calf serum (FCS) and cultured on a plate of 10 cm in diameter (Asahi Techno Glass) until reached 10^6 cells/ml. The cells were collected by 3 minutes of centrifugation at 1200 rpm, washed once with 10 ml of ice-cooled PBS and then lysed by adding 2.0 ml of the aforementioned buffer A, and the cell extract was collected. […] Under a condition of adding or not adding 100 μM in final concentration of thalidomide ((−)-thalidomide, Sigma), a pull-down test was carried out by mixing this soluble fraction of cell extract with 8 species of GST fusion chaperone proteins purified on the glutathione Sepharose beads (a mixture of GST-HSPA1A, GST-HSPH1, GST-HSPCA, GST-HSPD1, GST-DNAJA1, GST-HSPB1, GST-HSPE1 and GST-HSPA4; respective proteins were mixed in 0.5 μg portions). In this connection, steps and conditions of the pull-down test were the same as the aforementioned Example 2(2). […]

TNF-α = TNF-α gene expression in HeLa S3 cell (real time PCR, corrected by β-actin); format: cell-based, human
Protocol: The pcDNA-TARDBP or an empty vector (pcDNA3.1) (Invitrogen) was transferred into HeLa S3 cell. Illustratively, the HeLa S3 cell (ATCC) was firstly cultured in a 12 well culture plate until it reached a state of 70% confluent, by adding 1 ml of a minimum essential medium DMEM (Gibco) containing 10% fetal bovine serum (Sigma) to each well of the culture plate. The medium was substituted by 0.5 ml per well of a serum-free medium OPTI MEM I (Invitrogen), and 0.8 μg/well of the pcDNA-TARDBP or pcDNA3.1 was transiently transferred using Lipofect amine 2000 (Invitrogen). After 12 hours of the culturing, this was substituted by 1 ml/well of DMEM containing 10% of fetal bovine serum and further cultured for 12 hours. This was further cultured for 16 hours under a condition of adding or not adding okadaic acid (Wako Pure Chemical Industries) to a final concentration of 50 nM. In this case, […] was added a part of the cells simultaneously with the okadaic acid treatment. The medium was discarded, the cells were washed twice with ice-cooled PBS, and then these cells were frozen and stored at −80° C.
Total RNA was prepared from each cell frozen in the aforementioned Example 9(2), using a reagent for RNA extraction use (Isogen; Nippon Gene) and in accordance with the instructions attached thereto. The thus prepared each total RNA was then treated with a deoxyribonuclease (Nippon Gene), subjected to phenol/chloroform treatment and ethanol precipitation and dissolved in sterile water. Using 1 μg of this total RNA, its reverse transcription into a single-stranded cDNA was carried out in a system of 20 μl using a kit for reverse transcription reaction use (Advantage™ RT-for-PCR Kit; Clontech).
Six oligonucleotides (SEQ ID NO:97 to SEQ ID NO:102) were designed and synthesized as primers of PCR for the measurement of gene expression quantity. A combination of SEQ ID NO:97 and SEQ ID NO:98 was used for human β-actin gene, and a combination of SEQ ID NO:99 and SEQ ID NO:100 for human TNF-α gene, and a combination of SEQ ID NO:101 and SEQ ID NO:102 for human TARDBP gene, respectively. […]
The expression quantities of human TNF-α gene and human TARDBP gene in each sample were corrected by the expression quantity of β-actin gene based on the following equation. [Corrected expression quantity of TNF-α or TARDBP]=[expression quantity of TNF-α or TARDBP gene (raw data)/[expression quantity of β-actin gene (raw data)]
In comparing the expression quantities of TNF-α and TARDBP genes, relative amounts were calculated by regarding the expression quantity in a cell, into which an empty vector (pcDNA3.1) was transferred and which was treated only with the solvent (DMSO), as 100, with the results sown in FIG. 9 and FIG. 10. […]

With `O=C1CCC(N2C(=O)c3ccccc3C2=O)C(=O)N1` (single isomer, unassigned; (-)) [thalidomide, (−)-thalidomide] the “band of about 45 kDa (TARDBP) binding to GST fusion chaperone protein mixture” value (TARDBP) was “present only when thalidomide was added”, the “action to suppress expression of TNF-α” value (TNF-α; TARDBP high expression cell (pcDNA-TARDBP HeLa S3), with 50 nM okadaic acid) was “not observed” and the “suppression of expression acceleration of TNF-α by okadaic acid” value (TNF-α; control cell (empty vector HeLa S3), thalidomide '100' added with 50 nM okadaic acid, 16 hours) was ~50%.
